The text below walks through data of PubChem BioAssay AID504388 (Southern Research Specialized Biocontainment Screening …, 2011).

The assay concerns host cell cytotoxicity, % cell control, HIV fusion counter-screen. The assay can be described thus: host cell toxicity in fusion assay cells, dose response, cytotoxicity control for CCR5-tropic HIV-1 fusion inhibitors (AID 504388).

Broadly, the CC50 is the concentration giving 50% cytotoxicity.

The source made the active and inactive calls. How the calls were made is not given here.

Turning to `COc1ccc(CCn2c(O)cc3nn(-c4nc5ccccc5s4)c(=O)c-3c2C)cc1`, the cytotoxic concentration (CC50) was 36.4 µM.

Regarding `CS(=O)(=O)C1=NSC2=NC(=O)/C(=C\c3cccn3-c3ccc(Br)cc3)C(=N)N21`, the CC50 was 36.9 µM.

Regarding `Cc1c2c(=O)n(-c3nc4ccccc4s3)nc-2cc(O)n1Cc1ccc(F)cc1`, the CC50 was 38.5 µM.

For `COc1ccccc1NS(=O)(=O)c1ccc2c(c1)C1C=CCC1C(c1ccc(C(=O)O)cc1)N2` (centres undefined), the 50% cytotoxic concentration (CC50) is 70.9 µM.

In the case of `CS(=O)(=O)C1=NSC2=NC(=O)/C(=C\c3cccn3-c3ccc(F)cc3)C(=N)N21`, the CC50 was 36.3 µM.

For `COc1cccc(C2C(C(=O)Nc3ccccc3)=C(C)N=c3sc(=Cc4ccc(OCC(=O)O)cc4)c(=O)n32)c1` (centres undefined), the CC50 is > 100 µM (inactive).

As to `O=C(O)c1ccc(C[n+]2c(-c3ccc([N+](=O)[O-])cc3)csc2Nc2ccccc2)cc1`, the CC50 is > 100 µM (inactive).

In the case of `COc1ccccc1Cn1c(O)cc2nn(-c3nc4ccccc4s3)c(=O)c-2c1C`, the CC50 is 36.6 µM.

With `Cc1c2c(=O)n(-c3nc4ccccc4s3)nc-2cc(O)n1Cc1ccccc1Cl`, the CC50 is 23.5 µM.

In the case of `CCc1ccc(-c2ccc(/C=C3\SC(=S)N(CCCC(=O)O)C3=O)o2)cc1`, the CC50 is > 100 µM (inactive).

Take `O=C(O)CCCN1C(=O)/C(=C\c2ccc(-c3ccc(F)cc3)o2)SC1=S`: the CC50 was 88.2 µM.

Consider `CCOC(=O)C1=C(C)N=c2sc(=Cc3ccc(OCC(=O)O)cc3)c(=O)n2C1c1ccc(F)cc1` (centres undefined), for which the CC50 was 63 µM.

For `O=C(O)CCCN1C(=O)/C(=C\c2ccc(-c3cccc(Cl)c3)o2)SC1=S`, the CC50 is 51.1 µM.

For the compound `CS(=O)(=O)C1=NSC2=NC(=O)/C(=C\c3cccn3-c3cc(Cl)cc(Cl)c3)C(=N)N21`, the CC50 is 51.9 µM.

For the compound `O=C(O)c1ccc([C@@H]2Nc3ccc(S(=O)(=O)Nc4cccc5ccccc45)cc3[C@@H]3C=CC[C@@H]32)cc1`, the half-maximal cytotoxic concentration (CC50) is 68.9 µM.

On to `CCOc1ccc(-n2cccc2/C=C2/C(=N)N3C(=NC2=O)SN=C3S(C)(=O)=O)cc1`, for which the 50% cytotoxic concentration (CC50) was 40.2 µM.

Regarding `CS(=O)(=O)C1=NSC2=NC(=O)/C(=C\c3cccn3-c3cccc(F)c3)C(=N)N21`, the CC50 is 48.5 µM.

Turning to `Cc1c2c(=O)n(-c3nc4ccccc4s3)nc-2cc(O)n1Cc1cccnc1`, the CC50 is 7.3 µM.

In the case of `CCOC(=O)C1=C(C)N=c2sc(=Cc3ccc(OCC(=O)O)cc3)c(=O)n2C1c1ccc(OC)cc1OC` (centres undefined), the 50% cytotoxic concentration (CC50) was 55.8 µM.

Consider `Cc1ccc(-n2cccc2/C=C2/C(=N)N3C(=NC2=O)SN=C3S(C)(=O)=O)cc1C`, for which the 50% cytotoxic concentration (CC50) was 32.7 µM.

Regarding `COc1ccc(-n2cccc2/C=C2/C(=N)N3C(=NC2=O)SN=C3S(C)(=O)=O)cc1Cl`, the CC50 was 96 µM.

With `Cc1c2c(=O)n(-c3nc4ccccc4s3)nc-2cc(O)n1CCc1ccc(O)cc1`, the half-maximal cytotoxic concentration (CC50) was 27.2 µM.

As to `Cc1ccc(-n2cccc2/C=C2/C(=N)N3C(=NC2=O)SN=C3S(C)(=O)=O)cc1`, the CC50 was 39.5 µM.

Regarding `O=C(O)CCC(C(=O)O)N1C(=O)/C(=C\c2ccco2)SC1=S` (centres undefined), the CC50 is > 100 µM (inactive).

Consider `CCc1ccc(-n2cccc2/C=C2/C(=N)N3C(=NC2=O)SN=C3S(C)(=O)=O)cc1`, for which the CC50 is 30.7 µM.

`Cc1c2c(=O)n(-c3nc4ccccc4s3)nc-2cc(O)n1CCc1cccs1`: the CC50 was > 100 µM (inactive).

With `Nc1sc2ccccc2[n+]1Cc1ccc(C(=O)O)cc1`, the CC50 is > 100 µM (inactive).

For the compound `Cc1c2c(=O)n(-c3nc4ccccc4s3)nc-2cc(O)n1Cc1ccncc1`, the 50% cytotoxic concentration (CC50) is 5.17 µM.

For `CCOC(=O)C1=C(C)N=c2s/c(=C\c3ccc(OCC(=O)O)cc3)c(=O)n2C1c1ccc(OC)c(OCC)c1` (centres undefined), the half-maximal cytotoxic concentration (CC50) is 71.9 µM.

For the compound `Cc1c2c(=O)n(-c3nc4ccccc4s3)nc-2cc(O)n1CCC(C)C`, the CC50 is 36.5 µM.

As for `COc1ccc(-c2ccc(/C=C3\SC(=S)N(CCCC(=O)O)C3=O)o2)cc1`, the half-maximal cytotoxic concentration (CC50) is 78.6 µM.

As to `Cc1c2c(=O)n(-c3nc4ccccc4s3)nc-2cc(O)n1Cc1cccs1`, the CC50 was 42.5 µM.

Regarding `O=C(O)CCCN1C(=O)/C(=C\c2ccc(-c3ccc(Br)cc3)o2)SC1=S`, the CC50 is 7.36 µM.

Consider `CS(=O)(=O)C1=NSC2=NC(=O)/C(=C\c3cccn3-c3cccc(Cl)c3)C(=N)N21`, for which the half-maximal cytotoxic concentration (CC50) was 36.5 µM.

Take `CC1=C(C(=O)OC(C)C)C(c2ccc(Cl)cc2)n2c(s/c(=C\c3ccc(OCC(=O)O)cc3)c2=O)=N1` (centres undefined): the CC50 was > 100 µM (inactive).

On to `O=C(O)c1ccc(C[n+]2c(-c3ccccc3)csc2Nc2ccccc2)cc1`, for which the cytotoxic concentration (CC50) is 75.2 µM.

Turning to `CS(=O)(=O)C1=NSC2=NC(=O)/C(=C\c3cccn3-c3ccc(Cl)c(Cl)c3)C(=N)N21`, the CC50 is 39.4 µM.

As for `O=C(O)CCCN1C(=O)/C(=C\c2ccc(-c3ccc(Cl)cc3)o2)SC1=S`, the cytotoxic concentration (CC50) was 37.5 µM.

Regarding `COc1ccc(Cn2c(O)cc3nn(-c4nc5ccccc5s4)c(=O)c-3c2C)cc1`, the CC50 was 39.4 µM.

With `O=C(O)CCCN1C(=O)/C(=C/c2ccc(-c3ccc(Cl)c(Cl)c3)o2)SC1=S`, the CC50 was 18.3 µM.

Turning to `O=C(O)c1ccc(C2Nc3ccc(S(=O)(=O)Nc4cc(Cl)ccc4Cl)cc3C3C=CCC32)cc1` (centres undefined), the half-maximal cytotoxic concentration (CC50) was 85.6 µM.

Regarding `CCOC(=O)C1=C(c2ccccc2)N=c2s/c(=C\c3ccc(OCC(=O)O)cc3)c(=O)n2C1c1cccc(OC)c1` (centres undefined), the CC50 was 51.5 µM.

On to `CS(=O)(=O)C1=NSC2=NC(=O)/C(=C\c3cccn3-c3ccc(Cl)cc3)C(=N)N21`, for which the half-maximal cytotoxic concentration (CC50) is 39.7 µM.

Consider `CS(=O)(=O)C1=NSC2=NC(=O)/C(=C\c3cccn3-c3cccc(C(F)(F)F)c3)C(=N)N21`, for which the CC50 was 53.9 µM.

On to `Cc1c2c(=O)n(-c3nc4ccccc4s3)nc-2cc(O)n1C1CC1`, for which the CC50 was 6 µM.

Take `CCOC(=O)C1=C(C)N=c2sc(=Cc3ccc(OCC(=O)O)cc3)c(=O)n2C1c1ccccc1` (centres undefined): the half-maximal cytotoxic concentration (CC50) was 62.2 µM.

As for `COc1cccc(-n2cccc2/C=C2/C(=N)N3C(=NC2=O)SN=C3S(C)(=O)=O)c1`, the CC50 is > 100 µM (inactive).

Consider `O=C(O)CCCN1C(=O)/C(=C/c2ccc(-c3cccc(C(F)(F)F)c3)o2)SC1=S`, for which the CC50 was 92.8 µM.

As for `CCOC(=O)C1=C(C)N=c2s/c(=C\c3ccc(OCC(=O)O)cc3)c(=O)n2C1c1ccc(Cl)cc1` (centres undefined), the CC50 was 38.3 µM.
